Target: T1, Recombinant human His6-USP1/His6-UAF1 complex protein (Homo sapiens, UniProt O94782)
T1 construct: His6; purchased R&D E-568-050
Assay: In vitro inhibitory activity against USP1 (Ubiquitin Rhodamine 110 fluorescence detection, 384-well plate)
Assay type: biochemical
Details: Ub-Rho substrate, 1 hour pre-incubation, read after 30 minutes
Experimental: Test Example 1: In vitro inhibitory activity against USP1 […]
Experimental object: to screen compounds with inhibitory activity against USP1 […] by a fluorescence detection method, using a 384-well plate.
Experimental materials: Recombinant human His6-USP1/His6-UAF1 complex protein (R&D, Cat. No.: E-568-050), Ubiquitin Rhodamine 110 protein (Ub-Rho) (R&D, Cat. No.: U-555-050), 384-well plate (Perkin Elmer, Cat. No.: 6007279); all compounds were dissolved in 100% DMSO to obtain 50 mM stock solutions.
• 1) Preparation of 1 × assay buffer: 1 × assay buffer (modified Tris buffer) was prepared; • 2) Dilution of compounds: the compounds were transferred to an assay plate via Echo.

T1 sequence (O94782 whole entry): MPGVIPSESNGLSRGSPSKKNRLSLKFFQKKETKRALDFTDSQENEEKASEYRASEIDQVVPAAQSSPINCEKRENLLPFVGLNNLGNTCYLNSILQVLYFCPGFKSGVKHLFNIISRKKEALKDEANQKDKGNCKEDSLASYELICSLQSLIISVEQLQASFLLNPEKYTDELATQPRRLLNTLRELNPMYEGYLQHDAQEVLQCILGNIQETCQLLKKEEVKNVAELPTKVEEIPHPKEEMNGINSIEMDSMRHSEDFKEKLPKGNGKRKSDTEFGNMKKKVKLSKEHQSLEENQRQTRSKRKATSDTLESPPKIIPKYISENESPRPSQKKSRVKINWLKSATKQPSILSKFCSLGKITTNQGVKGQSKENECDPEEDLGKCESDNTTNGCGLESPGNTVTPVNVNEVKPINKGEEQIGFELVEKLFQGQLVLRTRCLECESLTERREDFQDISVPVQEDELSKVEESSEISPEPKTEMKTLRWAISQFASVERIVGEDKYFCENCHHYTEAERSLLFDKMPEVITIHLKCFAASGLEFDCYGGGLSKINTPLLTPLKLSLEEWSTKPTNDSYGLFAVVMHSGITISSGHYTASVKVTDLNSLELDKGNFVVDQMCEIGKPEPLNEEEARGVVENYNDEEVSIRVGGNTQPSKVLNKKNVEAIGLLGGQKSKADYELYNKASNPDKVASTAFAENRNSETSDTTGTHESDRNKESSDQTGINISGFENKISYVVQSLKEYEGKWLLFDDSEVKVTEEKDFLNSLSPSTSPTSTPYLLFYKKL
T1 sequence (Q8TAF3 whole entry partner): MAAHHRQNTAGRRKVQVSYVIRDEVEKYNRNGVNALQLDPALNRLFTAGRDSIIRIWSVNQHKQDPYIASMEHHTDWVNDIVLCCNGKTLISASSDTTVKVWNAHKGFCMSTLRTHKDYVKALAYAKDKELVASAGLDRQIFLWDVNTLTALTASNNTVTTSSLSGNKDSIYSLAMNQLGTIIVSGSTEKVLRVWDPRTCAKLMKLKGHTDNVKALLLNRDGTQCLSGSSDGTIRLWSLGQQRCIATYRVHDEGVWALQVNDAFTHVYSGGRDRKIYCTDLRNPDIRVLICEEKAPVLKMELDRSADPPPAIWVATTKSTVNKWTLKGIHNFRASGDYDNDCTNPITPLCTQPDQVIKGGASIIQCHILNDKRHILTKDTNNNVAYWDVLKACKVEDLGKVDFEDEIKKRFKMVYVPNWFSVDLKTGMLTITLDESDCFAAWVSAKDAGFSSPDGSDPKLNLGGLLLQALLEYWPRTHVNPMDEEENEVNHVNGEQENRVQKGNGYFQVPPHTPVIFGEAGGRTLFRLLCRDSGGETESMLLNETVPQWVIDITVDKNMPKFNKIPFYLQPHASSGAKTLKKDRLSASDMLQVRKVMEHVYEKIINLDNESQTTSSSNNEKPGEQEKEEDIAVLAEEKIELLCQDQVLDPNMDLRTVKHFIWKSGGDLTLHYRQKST

| Structure (SMILES) | IC50 [nM] |
| --- | --- |
| Cc1ncn(C(C)C)c1-c1nc(NCC23CCC(c4ccc(C(F)(F)F)cn4)(CC2)CC3)c2occc2n1 [Example 150, 2-(1-Isopropyl-4-methyl-1H-imidazol-5-yl)-N-((4-(5-(trifluoromethyl)pyridin-2-yl)bicyclo[2.2.2]octan-1-yl)methyl)furo[3,2-d]pyrimidin-4-amine] | 431 |
| CC(C)c1ccccc1-c1ncc2c(n1)N(C[C@H]1CC[C@@H](c3nc(C(F)(F)F)cn3C)CC1)CCO2 [Example 14, 2-(2-Isopropylphenyl)-8-(((1s,4s)-4-(1-methyl-4-(trifluoromethyl)-1H-imidazol-2-yl)cyclohexyl)methyl)-7,8-dihydro-6H-pyrimido[5,4-b][1,4] oxazine] | 60 |
| COc1cnc(-c2c(C)noc2C(C)C)nc1N(C)CC1CCN(c2ccccn2)CC1 [Example 186, 2-(5-Isopropyl-3-methylisoxazol-4-yl)-5-methoxy-N-methyl-N-((1-(pyridin-2-yl)piperidin-4-yl)methyl)pyrimidin-4-amine] | 66 |
| COc1ncnc(C2CC2)c1-c1ncc2c(n1)N(CC1CCN(c3nc(C(F)(F)F)cn3C)CC1)C(=O)CO2 [Example 30, 2-(4-Cyclopropyl-6-methoxypyrimidin-5-yl)-8-((1-(1-methyl-4-(trifluoromethyl)-1H-imidazol-2-yl)piperidin-4-yl)methyl)-6H-pyrimido[5,4-b][1,4]oxazin-7(8H)-one] | 37 |
| COc1cnc(-c2cccc3ccn(C)c23)nc1NCc1ccc(-n2nc(C(F)(F)F)cc2C)cc1 [Example 144, 5-Methoxy-2-(1-methyl-1H-indol-7-yl)-N-(4-(5-methyl-3-(trifluoromethyl)-1H-pyrazol-1-yl)benzyl)pyrimidin-4-amine] | 68.6 |
| COc1cnc(-c2c(OC)cnn2C(C)C)nc1NCc1ccc(-c2ccccn2)cc1 [Example 178, 2-(1-Isopropyl-4-methoxy-1H-pyrazol-5-yl)-5-methoxy-N-(4-(pyridin-2-yl)benzyl)pyrimidin-4-amine] | 110 |
| COc1cnc(-c2c(C)ncn2C(C)C)nc1NCc1ccc(-c2nc(C(F)(F)F)cn2C)cc1 [Example 147, 2-(1-Isopropyl-4-methyl-1H-imidazol-5-yl)-5-methoxy-N-(4-(1-methyl-4-(trifluoromethyl)-1H-imidazol-2-yl)benzyl)pyrimidin-4-amine] | 364 |
| COc1cnc(-c2c(OC)ncnc2C2CC2)nc1NCc1ccc2c(c1)CCN(C(C)C)C2=O [Example 97, 6-(((4'-Cyclopropyl-5,6'-dimethoxy-[2,5'-bipyrimidin]-4-yl)amino)methyl)-2-isopropyl-3,4-dihydroisoquinolin-1(2H)-one] | 263 |
| COc1ncnc(C2CC2)c1-c1nc(NCc2ccc3c(c2)CCN(C)C3=O)c2occc2n1 [Example 114, 6-(((2-(4-Cyclopropyl-6-methoxypyrimidin-5-yl)furo[3,2-d]pyrimidin-4-yl)amino)methyl)-2-methyl-3,4-dihydroisoquinolin-1(2H)-one] | 648 |
| COc1cnc(-c2c(OC)cnn2C(C)C)nc1N(C)CC1CCN(c2ccccn2)CC1 [Example 177, 2-(1-Isopropyl-4-methoxy-1H-pyrazol-5-yl)-5-methoxy-N-methyl-N-((1-(pyridin-2-yl)piperidin-4-yl)methyl)pyrimidin-4-amine] | 75 |
| COc1ncnc(C2CC2)c1-c1ncc(OC(C)C)c(NCC23CCC(c4ccc(C(F)(F)F)cn4)(CC2)CC3)n1 [Example 112, 4'-Cyclopropyl-5-isopropoxy-6'-methoxy-N-((4-(5-(trifluoromethyl)pyridin-2-yl)bicyclo[2.2.2]octan-1-yl)methyl)-[2,5'-bipyrimidin]-4-amine] | 266 |
| COc1ncnc(C2CC2)c1-c1nc(NCc2ccc(-c3ccccn3)cc2)c2[nH]ccc2n1 [Example 37, 2-(4-Cyclopropyl-6-methoxypyrimidin-5-yl)-N-(4-(pyridin-2-yl)benzyl)-5H-pyrrolo[3,2-d]pyrimidin-4-amine] | 51 |
| COc1cnc(-c2cccc3c2N(C)CC3)nc1NCc1ccc(-n2nc(C(F)(F)F)cc2C)cc1 [Example 146] | 18 |
| COc1cnc(-c2c(OC)ncnc2C2(F)CC2)nc1NCC1CCC(c2nc(C(F)(F)F)cn2C2CC2)CC1 [Example S38, N-(((1R,4R)-4-(1-cyclopropyl-4-(trifluoromethyl)-1H-imidazol-2-yl)cyclohexyl)methyl)-4'-(1-fluorocyclopropyl)-5,6'-dimethoxy-[2,5'-bipyrimidin]-4-amine] | 220 |

Continued, values first:

| IC50 [nM] | Structure (SMILES) |
| --- | --- |
| 31 | COc1cnc(-c2cccc3ccn(C)c23)nc1NCc1ccc(-c2nc(C(F)(F)F)cn2C)cc1 [Example 143, 5-Methoxy-2-(1-methyl-1H-indol-7-yl)-N-(4-(1-methyl-4-(trifluoromethyl)-1H-imidazol-2-yl)benzyl)pyrimidin-4-amine] |
| 3.5 | [2H]C([2H])([2H])Oc1ncnc(C2CC2)c1-c1ncc(OC)c(N(C)CC23CCC(c4nc(C(F)(F)F)cn4C)(CC2)CC3)n1 [Example S9, 4'-Cyclopropyl-5-methoxy-6'-(methoxy-D3)-N-methyl-N-((4-(1-methyl-4-(trifluoromethyl)-1H-imidazol-2-yl)bicyclo[2.2.2]oct-1-yl)methyl)-[2,5'-bipyrimidin]-4-amine] |
| 15 | COc1cnc(-c2c(C)noc2C(C)C)nc1NCc1ccc(-c2nc(C(F)(F)F)cn2C)cc1 [Example 188, 2-(5-Isopropyl-3-methylisoxazol-4-yl)-5-methoxy-N-(4-(1-methyl-4-(trifluoromethyl)-1H-imidazol-2-vl)benzyl)pyrimidin-4-amine] |
| 6.2 | CC(C)c1ccccc1-c1ncc(N2CCOCC2)c(NCc2ccc(-c3nc(C(F)(F)F)cn3C)cc2)n1 [Example 87, 2-(2-Isopropylphenyl)-N-(4-(1-methyl-4-(trifluoromethyl)-1H-imidazol-2-yl)benzyl)-5-morpholinopyrimidin-4-amine] |
| 23.5 | COc1cnc(-c2c(C)noc2C(C)C)nc1NCC1CCN(c2nc(C(F)(F)F)cn2C)CC1 [Example 187, 2-(5-Isopropyl-3-methylisoxazol-4-yl)-5-methoxy-N-((1-(1-methyl-4-(trifluoromethyl)-1H-imidazol-2-yl)piperidin-4-yl)methyl)pyrimidin-4-amine] |
| 1.9 | CC(C)c1ccccc1-c1ncc2c(n1)N(CC1CCC(c3nc(C(F)(F)F)cn3C)CC1)CCO2 [Example 13, 2-(2-Isopropylphenyl)-8-(((1R,4R)-4-(1-methyl-4-(trifluoromethyl)-1H-imidazol-2-yl)cyclohexyl)methyl)-7,8-dihydro-6H-pyrimido [5,4-b][1,4] oxazine] |
| 28 | CC(C)c1ccccc1-c1nc(NCc2ccc3c(c2)CCN(C)C3=O)c2occc2n1 [Example 77, 6-(((2-(2-Isopropylphenyl)furo[3,2-d]pyrimidin-4-yl)amino)methyl)-2-methyl-3,4-dihydroisoquinolin-1 (2H)-one] |
| 6.1 | COc1cnc(-c2c(Cl)cnn2C(C)C)nc1N(C)CC12CCC(c3nc(C(F)(F)F)cn3C)(CC1)OC2 [Example 211, 2-(4-chloro-1-isopropyl-1H-pyrazol-5-yl)-5-methoxy-N-methyl-N-((1-(1-methyl-4-(trifluoromethyl)-1H-imidazol-2-yl)-2-oxabicyclo [2.2.2]octan-4-yl)methyl)pyrimidin-4-amine] |

Test system: MDA-MB-436
Assay: CTG experiment for cell viability (CellTiter-Glo, 96-well plate, 7 days)
Assay type: cell-based
Details: Homo sapiens, MDA-MB-436, 168 h, MDA-MB-436 cells, 7 days culture with compound
Experimental: Test Example 2: CTG experiment for cell viability
• 1. Object: to screen USP1 inhibitors by a CTG assay, using a 96-well plate. • 2. Materials: • The cells used were MDA-MB-436 (manufacturer: Nanjing Cobioer Biotechnology Co., Ltd.) and cultured in DMEM medium, • CTG (CellTiter-Glo® Luminescent Cell Viability Assay kit) (Promega, Cat. No.: G7572), • 96-well plate (Corning, Cat. No.: 3610). • 3. Compounds: all compounds were dissolved in 100% DMSO to obtain 50 mM stock solutions. • 4. Experimental method: • ① Plating: The cells to be tested were spread into a 96-well plate at a certain density, with 200 µL per well, and 200 µL of cell medium was added to the blank wells. […] The cell plate with the compounds was placed in an incubator at 37°C, and further cultured for 7 days prior to detection. • ④ Assay: The substrate and the buffer of CTG kit were mixed evenly. The cell plate with the compounds in Step ③ was taken out from the incubator, and left at room temperature to equilibrate for 30 minutes. The medium containing the compounds was removed from the cell plate, 100 µL of PBS and 50 µL of CTG reagent were added to each well, shaken and mixed for 3 minutes, and then incubated for 10 minutes at room temperature. The plate was read by a BIotek microplate-reader, with a parameter set to 567 CPM. • 5. Curve fitting
It was the same as that for the enzyme.

| IC50 [nM] | Structure (SMILES) |
| --- | --- |
| 313 | COc1ncnc(C2CC2)c1-c1ncc2c(n1)N(Cc1ccc(-c3nc(C(F)(F)F)cn3C)cc1)C(=O)CO2 [Example 18, 2-(4-Cyclopropyl-6-methoxypyrimidin-5-yl)-8-(4-(1-methyl-4-(trifluoromethyl)-1H-imidazol-2-yl)benzyl)-6H-pyrimido[5,4-b][1,4]oxazin-7(8H)-one] |
| 59.5 | Cn1cc(C(F)(F)F)nc1-c1ccc(CNc2nc(-c3cccnc3C3CC3)ncc2OC(F)F)cc1 [Example 156, 2-(2-Cyclopropylpyridin-3-yl)-5-(difluoromethoxy)-N-(4-(1-methyl-4-(trifluoromethyl)-1H-imidazol-2-yl)benzyl)pyrimidin-4-amine] |
| 119 | COc1ncnc(C2CC2)c1-c1nc(NCc2ccc(-c3ccccn3)cc2)c2occc2n1 [Example 34, 2-(4-Cyclopropyl-6-methoxypyrimidin-5-yl)-N-(4-(pyridin-2-yl)benzyl)furo[3,2-d]pyrimidin-4-amine] |

Same assay, conditions: MDA-MB-436 cells, 7 days culture with compound

| IC50 [nM] | Structure (SMILES) |
| --- | --- |
| 0.3 | COc1cnc(-c2c(OC)ncnc2C2CC2)nc1N(C)C[C@H]1CC[C@H](c2nc(C(F)(F)F)cn2C2CC2)CC1 [Example S28, 4'-Cyclopropyl-N-(((1R,4R)-4-(1-cyclopropyl-4-(trifluoromethyl)-1H-imidazol-2-yl)cyclohexyl)methyl)-5,6'-dimethoxy-N-methyl-[2,5'-bipyrimidin]-4-amine] |
